Read-outs that look alike come from different tables or passages of the source.
Key:
[1] = system: Leishmania donovani axenic amastigote parasites; experiment: Leishmania donovani axenic amastigote proliferation assay (Cell TiterGlo luminescence, 2 day incubation); assay type: cell-based; conditions: Leishmania donovani, read-out: L. donovani amastigotes EC50
[2] = system: L. donovani HU3 strain in mouse peritoneal macrophages; experiment: Assay for proliferation of Leishmania parasites in infected mouse peritoneal macrophages (SybrGreen staining, high-content imaging, 5 days); assay type: cell-based, Leishmania donovani; conditions: Leishmania donovani, Peritoneal macrophage, L. donovani in mouse peritoneal macrophages, read-out: L. donovani Macrophage EC50
[3] = system: Trypanosoma brucei Lister 427 strain, bloodstream form; experiment: Assay for proliferation of kinetoplastid parasite Trypanosoma brucei (Cell Titer Glo, 48 hours); assay type: cell-based; conditions: Trypanosoma brucei, read-out: T. brucei EC50
How it was run: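 Bloodstream-form T. brucei Lister 427 in HMI-9 medium was exposed to compound (DMSO vehicle) for 48 hours at 37° C, 5% CO2. Parasite growth was read as ATP by CellTiter-Glo luminescence, with EC50 calculated from percent inhibition.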

[4] = system: Trypanosoma cruzi amastigotes (Tulahuen strain expressing Lac-Z) cultured in 3T3 fibroblast cells; experiment: microbe, parasite or virus in culture; assay type: cell-based; conditions: Trypanosoma cruzi, TULAHUEN, Fibroblast, T. cruzi amastigotes in 3T3 fibroblast cells, read-out: T cruzi EC50
[5] = axenic amastigotes, inhibition of proliferation
[6] = T. brucei Lister 427 bloodstream form, inhibition of proliferation
[7] = T. brucei Lister 427 bloodstream form

SMILES | EC50 [1, 5] [nM] | EC50 ([2]; inhibition of proliferation) [nM] | EC50 [3, 6] [nM] | EC50 ([4]; inhibition of proliferation) [nM] | EC50 ([1]; L. donovani axenic amastigotes) [nM] | EC50 [2] [nM] | EC50 [3, 7] [nM] | EC50 [4] [nM] | EC50 [3] [nM]
CC(C)OC(=O)Nc1cnc2nc(-c3cc(NC(=O)c4cnco4)ccc3F)cn2c1 [Compound 78] | 307 | 6410 | 553 | 1910 | – | – | – | – | –
CC(C)CNc1cnc2nc(-c3cc(NC(=O)N4CCCC4)ccc3F)cn2c1 [Compound 472] | – | – | – | – | 210 | 737 | 58 | 297 | –
O=C(Nc1ccc(F)c(-c2cn3cc(-c4ccccc4)cnc3n2)c1)N1CC[C@@H](F)C1 [Compound 409] | – | – | – | – | 19 | 61 | 4 | 5 | –
O=C(Nc1ccc(F)c(-c2cn3cc(OCCN4CCOCC4)cnc3n2)c1)N1CCCC1 [Compound 563] | – | – | – | – | 14200 | 8500 | > 50000 | 6700 | –
Cn1cnc(-c2cnc3nc(-c4cc(NC(=O)N5CCCC5)ccc4F)cn3c2)c1 [Compound 355] | 97 | 521 | 86 | 1140 | – | – | – | – | –
Cc1nc(C)c(C(=O)Nc2ccc(F)c(-c3cn4cc(-c5cnn(C6CCN(C(=O)OC(C)(C)C)CC6)c5)cnc4n3)c2)o1 [Compound 384] | – | – | – | – | 95 | 616 | 143 | 115 | –
CC(C)OC(=O)Nc1cnc2nc(-c3cc(NC(=O)c4ccc(S(C)(=O)=O)s4)ccc3F)cn2c1 [Compound 109] | > 25000 | 28200 | > 50000 | > 20000 | – | – | – | – | –
Cc1nc(C(=O)Nc2ccc(Cl)c(-c3cn4cc(NC(=O)OC(C)C)cnc4n3)c2)c(C)o1 [Compound 46] | 1390 | 4990 | 3010 | 262 | – | – | – | – | –
Cc1nc(C)c(C(=O)Nc2ccc(F)c(-c3cn4cc(NC(=O)C5CCCCN5C)cnc4n3)c2)o1 (stereo not drawn) [Compound 165] | > 25000 | > 50000 | 1450 | 5180 | – | – | – | – | –
CCOC(=O)Nc1cnc2nc(-c3cc(NC(=O)c4oc(C)nc4C)ccc3F)cn2c1 [Compound 305] | 112 | 269 | 163 | 499 | – | – | – | – | –
CC(=O)Nc1ncc(C(=O)Nc2ccc(Cl)c(-c3cn4cc(NC(=O)OC(C)C)cnc4n3)c2)s1 [Compound 50] | > 25000 | > 50000 | > 50000 | > 20000 | – | – | – | – | –
Cc1nc(C)c(C(=O)Nc2ccc(F)c(-c3cn4cc(-c5ccccc5N)cnc4n3)c2)o1 [Compound 372] | – | – | – | – | 221 | 242 | 80 | 95 | –
Cc1nc(C)c(C(=O)Nc2ccc(F)c(-c3cn4cc(NC(=O)C5(C)CCC5)cnc4n3)c2)o1 [Compound 114] | 143 | 266 | 105 | 1070 | – | – | – | – | –
Cc1nc(C)c(C(=O)Nc2ccc(F)c(-c3cn4cc(NCC(C)C)cnc4n3)c2)o1 [Compound 463] | – | – | – | – | 571 | 507 | 238 | 163 | –
CC(C)(C)OC(=O)N1CCC(Oc2ccc(-c3cnc4nc(-c5cc(NC(=O)N6CCCC6)ccc5Cl)cn4c3)cc2)CC1 [Compound 345] | 251 | 955 | 527 | 408 | – | – | – | – | –
CCN(C)C(=O)Nc1ccc(F)c(-c2cn3cc(-c4ccccc4)cnc3n2)c1 [Compound 327] | 167 | 459 | 102 | 50 | – | – | – | – | –
Cc1nc(C)c(C(=O)Nc2ccc(F)c(-c3cn4cc(C#CCCN5CCOCC5)cnc4n3)c2)o1 [Compound 544, N-(4-fluoro-3-(6-(4-morpholinobut-1-yn-1-yl)imidazo[1,2-a]pyrimidin-2-yl)phenyl)-2,4-dimethyloxazole-5-carboxamide] | – | – | – | – | 4040 | 19300 | > 50000 | 4010 | –
CC(C)OC(=O)Nc1cnc2nc(-c3cc(NC(=O)c4cn5cccnc5n4)ccc3Cl)cn2c1 [Compound 49] | > 25000 | > 50000 | > 50000 | > 20000 | – | – | – | – | –
Cc1nc(C)c(C(=O)Nc2ccc(F)c(-c3cn4cc(-c5ccccc5F)cnc4n3)c2)o1 [Compound 391] | – | – | – | – | 56 | 129 | 53 | 16 | –
CC(C)OC(=O)Nc1cnc2nc(-c3cc(NC(=O)N(C)C)ccc3Cl)cn2c1 [Compound 246] | 562 | 1190 | 85 | 622 | – | – | – | – | –

SMILES | EC50 [1, 5] [nM] | EC50 ([2]; inhibition of proliferation) [nM] | EC50 [3, 6] [nM] | EC50 ([4]; inhibition of proliferation) [nM] | EC50 ([1]; L. donovani axenic amastigotes) [nM] | EC50 [2] [nM] | EC50 [3, 7] [nM] | EC50 [4] [nM] | EC50 [3] [nM]
CC(C)OC(=O)Nc1ccc(F)c(-c2cn3cc(C(F)(F)F)cnc3n2)c1 [Compound 301, isopropyl (4-fluoro-3-(6-(trifluoromethyl)imidazo[1,2-a]pyrimidin-2-yl)phenyl)carbamate] | 727 | > 32400 | – | 444 | – | – | – | – | 307
Cc1nc(C)c(C(=O)Nc2ccc(F)c(-c3cn4cc(-c5cn(C)cn5)cnc4n3)c2)o1 [Compound 426, N-(4-fluoro-3-(6-(1-methyl-1H-imidazol-4-yl)imidazo[1,2-a]pyrimidin-2-yl)phenyl)-2,4-dimethyloxazole-5-carboxamide] | – | – | – | – | 16 | 182 | 378 | 124 | –
Cc1nc(C)c(C(=O)Nc2ccc(F)c(-c3cn4cc(NC(=O)CN(C)C)cnc4n3)c2)o1 [Compound 186] | 15800 | 6220 | 590 | 10200 | – | – | – | – | –
COCC(=O)Nc1ccc(F)c(-c2cn3cc(NC(=O)OC(C)C)cnc3n2)c1 [Compound 106] | 2740 | 24800 | 2200 | 3450 | – | – | – | – | –
Cc1ccc(C(=O)Nc2ccc(F)c(-c3cn4cc(NC(=O)OC(C)C)cnc4n3)c2)o1 [Compound 80] | 89 | 244 | 59 | 63 | – | – | – | – | –
Cc1nc(C)c(C(=O)Nc2ccc(F)c(-c3cn4cc(NC5=NCC(C)O5)cnc4n3)c2)o1 (stereo not drawn) [Compound 504] | – | – | – | – | 2970 | 5510 | 976 | 10700 | –
CC(C)OC(=O)Nc1cnc2nc(-c3cc(NC(=O)/C=C/CN(C)C)ccc3F)cn2c1 [Compound 103] | 2150 | 9860 | 5620 | 10800 | – | – | – | – | –
Cc1nc(C)c(C(=O)Nc2ccc(F)c(-c3cn4cc(NC(=O)C5(C)COC5)cnc4n3)c2)o1 [Compound 192] | 3240 | > 25100 | 1140 | > 20000 | – | – | – | – | –
Cc1nc(C)c(C(=O)Nc2ccc(F)c(-c3cn4cc(N5C[C@@H](C)O[C@@H](C)C5)cnc4n3)c2)o1 [Compound 491] | – | – | – | – | 234 | 743 | 140 | 296 | –
O=C(Nc1ccc(F)c(-c2cn3cc(-c4ccccn4)cnc3n2)c1)N1CC(F)(F)C1 [Compound 296, 3,3-difluoro-N-(4-fluoro-3-(6-(pyridin-2-yl)imidazo[1,2-a]pyrimidin-2-yl)phenyl)azetidine-1-carboxamide] | 4 | 13 | – | 14 | – | – | – | – | 12
CC(C)c1cnc2nc(-c3cc(NC(=O)N4CCC4)ccc3F)cn2c1 [Compound 411, N-(4-fluoro-3-(6-isopropylimidazo[1,2-a]pyrimidin-2-yl)phenyl)azetidine-1-carboxamide] | – | – | – | – | 83 | 154 | 22 | 46 | –
Cc1cnc(F)c(-c2cnc3nc(-c4cc(NC(=O)c5oc(C)nc5C)ccc4F)cn3c2)c1 [Compound 439] | – | – | – | – | 108 | 754 | 121 | 89 | –
Cc1nc(C)c(C(=O)Nc2ccc(F)c(-c3cn4cc(-c5ccc(CCN(C)C)cc5)cnc4n3)c2)o1 [Compound 450] | – | – | – | – | 4620 | 2990 | 499 | 397 | –
Cc1cnc(-c2cnc3nc(-c4cc(NC(=O)c5oc(C)nc5C)ccc4F)cn3c2)cn1 [Compound 452] | – | – | – | – | 19 | 61 | 97 | 45 | –
Cc1nc(C)c(C(=O)Nc2ccc(F)c(-c3cn4cc(-c5cn(C(C)C)cn5)cnc4n3)c2)o1 [Compound 428] | – | – | – | – | 100 | 291 | 161 | 451 | –
Nc1cc(-c2cnc3nc(-c4cc(NC(=O)N5CCCC5)ccc4F)cn3c2)ccn1 [Compound 342] | 2140 | 14600 | 364 | 9360 | – | – | – | – | –
Cc1nc(C)c(C(=O)Nc2ccc(F)c(-c3cn4cc(-c5cccc(F)n5)cnc4n3)c2)o1 [Compound 434] | – | – | – | – | 107 | 924 | 160 | 42 | –
CC1(C(=O)Nc2cnc3nc(-c4cc(NC(=O)N5CCCC5)ccc4F)cn3c2)CCCCO1 (stereo not drawn) [Compound 136] | 392 | 1420 | 157 | > 20000 | – | – | – | – | –
Cc1nc(C)c(C(=O)Nc2ccc(F)c(-c3cn4cc(-c5ncc(F)cc5C)cnc4n3)c2)o1 [Compound 430, N-(4-fluoro-3-(6-(5-fluoro-3-methylpyridin-2-yl)imidazo[1,2-a]pyrimidin-2-yl)phenyl)-2,4-dimethyloxazole-5-carboxamide] | – | – | – | – | 31 | 59 | 52 | 10 | –

From patent publication US20160045505A1, “COMPOUNDS AND COMPOSITIONS FOR THE TREATMENT OF PARASITIC DISEASES” (NOVARTIS AG, priority 2013, published 2016)
